We go through 10 compounds from article PMC6195125 (European journal of medicinal chemistry, 2018).

The subject of one series is HepG2-A16-CD81EGFP cells. Put plainly: HepG2 cytotoxicity bioluminescence assay. Type of series: cell-based, human. Conditions: read-out: HepG2 IC50.
The next series deals with P. falciparum. Particulars: read-out: P. falciparum IC50; in vitro; cited from earlier work.
The test system of a further series is mammalian cell. Conditions: read-out: Cytotoxicity IC50; cited from earlier work.
In another series the test system is P. falciparum 3D7. Type of series: cell-based. Particulars: Plasmodium falciparum, 3D7, read-out: P.falciparum IC50 Pf3D7.
The subject of another series is P. falciparum Dd2. The series can be described thus: microbe, parasite or virus in culture. Conditions: Plasmodium falciparum, DD2, read-out: P.falciparum IC50 PfDd2. Type of series: cell-based.
The subject of series [1] is P. falciparum NF54 late stage gametocytes (IV-V). Put plainly: Imaging-based viability assay, late stage gametocytes. Type of series: cell-based. Conditions: Plasmodium falciparum, NF54, read-out: Pf LSG inhibition at 40 μM.
In series [2] the test system is normal human neonatal foreskin fibroblasts (NFFs). The series can be described thus: Cytotoxicity against neonatal foreskin fibroblasts. The series is classed as cell-based. Particulars: Fibroblast, read-out: NFF IC50.
The subject of series [3] is P. falciparum stage V gametocytes. Put plainly: ATP bioluminescence assay, mature gametocytes. Type of series: cell-based, Plasmodium falciparum. Particulars: read-out: Pf stage V gametocytes IC50.
Series [4] has as its system P. berghei exo-erythrocytic forms (EEF). The series is classed as cell-based, Plasmodium berghei. Particulars: read-out: Pb EEF IC50; P. berghei-Luc in HepG2-A16-CD81EGFP cells, 48 h.

Where two headings read alike, the source gives them in different places. A value given as a limit tells only on which side of the number the result lay.

The term IC50 denotes the concentration at which inhibition is half-maximal. For the compound `O=C1C(O)=C([C@H]2CC[C@H](c3ccc(Cl)cc3)CC2)C(=O)c2ccccc21` [ATQ, Atovaquone], the IC50 in the series with HepG2-A16-CD81EGFP cells (Homo sapiens, HepG2, 48 h) was over 500 nM.

Take `CCC(=O)CCCCC[C@@H]1NC(=O)[C@H]2CCCCN2C(=O)[C@H]([C@@H](C)CC)NC(=O)[C@H](Cc2cn(OC)c3ccccc23)NC1=O` [Apicidin]: the IC50 was 200 nM in the series with P. falciparum and 50 to 100 nM in the series with mammalian cell. Consider `O=C(/C=C/c1cccc(S(=O)(=O)Nc2ccccc2)c1)NO` [Belinostat], for which the figures for the IC50 in the series with P. falciparum and in the series on mammalian cell were 60 to 130 nM and 1420 to 2370 nM, respectively. As to `CCN(CC)CCCC(C)Nc1ccnc2cc(Cl)ccc12` (centres unmarked) [CQ, chloroquine], the IC50 is 11 nM in the series with P. falciparum 3D7 and 49 nM in the series with P. falciparum Dd2. The term inhibition denotes the percentage by which the read-out fell short of the control. In the case of `O=C(CN(Cc1ccc(C(=O)NO)cc1)C(=O)c1cccc2ccccc12)NC1CCCCC1` [Compound 1g], the inhibition at 40 µM in series [1] amounted to 97%. `Cc1ccc(NC(=O)CN(Cc2ccc(C(=O)NO)cc2)C(=O)c2cccc3ccccc23)cc1` [Compound 1k]: the IC50 in series [2] was over 10000 nM. With `Cc1[nH]c2ccccc2c1CCNCc1ccc(/C=C/C(=O)NO)cc1` [Panobinostat], the IC50 in the series with P. falciparum is 10 to 30 nM; in the series with mammalian cell, 70 to 180 nM. Take `CC(/C=C/C(=O)NO)=C\[C@@H](C)C(=O)c1ccc(N(C)C)cc1` [Trichostatin A (TSA), Trichostatin A]: the IC50 in the series on P. falciparum was 8 to 11 nM.

Regarding `CN(C)c1ccc2nc3ccc(N(C)C)cc3[s+]c2c1` [methylene blue], the IC50 in [3] (Plasmodium falciparum, 48 h) was determined as 210000 nM. As to “Methyl 4-((3,5-dimethyl-N-(2-oxo-2-(p-tolylamino)ethyl)benzamido)methyl)benzoate [Compound 1m]”, the IC50 in series [4] came out at 5550 nM; in series [3] (ATP assay, 48 h incubation), 10100 ± 3720 nM; in the series on HepG2-A16-CD81EGFP cells (Table 4) it was 21400 nM; with HepG2-A16-CD81EGFP cells (Table 7 and text, 48 h) it was 21400 nM.
